This is an account of results in article PMC9995496, “A screen for MeCP2-TBL1 interaction inhibitors using a luminescence-based assay” (Scientific Reports, 2023).

In this test the target is T1, MeCP2-TBL1 interaction (MeCP2-SmBiT / TBL1-LgBiT) (Mus musculus, UniProt Q9QXE7).
T1 construct: expressed in transfected cells; crude lysate used as a cell-free assay
T1 sequence (Q9QXE7 166-527): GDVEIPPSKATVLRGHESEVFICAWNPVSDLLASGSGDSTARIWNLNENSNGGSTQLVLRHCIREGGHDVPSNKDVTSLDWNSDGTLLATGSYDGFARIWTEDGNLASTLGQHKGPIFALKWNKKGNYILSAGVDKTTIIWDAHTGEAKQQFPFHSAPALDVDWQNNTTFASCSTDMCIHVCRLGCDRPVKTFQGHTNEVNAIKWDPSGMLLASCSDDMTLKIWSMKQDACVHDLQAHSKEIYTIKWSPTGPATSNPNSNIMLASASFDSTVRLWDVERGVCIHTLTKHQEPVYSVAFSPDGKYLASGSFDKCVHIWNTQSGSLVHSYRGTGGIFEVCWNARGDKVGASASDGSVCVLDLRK
Kind of test: MeCP2-TBL1 NanoLuc luciferase complementation assay (cell-free, extracts of transfected HEK293 cells).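 As to Inhibition percent: each compound tested at 20 µM final concentration.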 The format is binding, human. Summed up:
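Cell-free split NanoLuc: lysate of HEK293 cells co-expressing the MeCP2 C-terminal half-SmBiT and TBL1 WD domain-LgBiT, mixed 1:1 with furimazine. After 30 min at room temperature, luminescence was plate-median normalized.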

The mark [1] stands for this setting: primary screen of Asinex library, single well per compound.
Setting [2] is: primary screen of the Asinex library, sheet "Sargen output Asinex library", one well per compound, Batch Ref. 1.
Where [3] appears, read: primary screen of the Asinex library, sheet "Sargen output Asinex library", one well per compound.

Ends that are not written are not given here. * marks the point of attachment. Biotin = O=C1N[C@H]2[C@H](CS[C@H]2CCCCC(=O)*)N1

Take `CCN1CCN(C(=O)CCC2NC(=O)NC2=O)C(Cc2ccc(-c3ccccc3)cc2)C1=O` (centres unmarked) [BDD_21846702]: the Inhibition percent under setting [1] is on record as -2.65.

In the case of `O=C(CC1CCCCC1)N1CCOC(c2nccnc2-c2cccc(C(F)(F)F)c2)C1` (centres unmarked) [BDF_25939482], the Inhibition percent under setting [2] is on record as 0.68%.

Take `CC(=O)N[C@H]1C[C@@H](C(=O)N(C)C)N(C(=O)CCn2cnc3ccccc32)[C@H]1c1ccccc1` [BDG_33631962]: the Inhibition percent under setting [1] is recorded as 5.65.

Regarding `O=C(NCCc1ccc(Cl)cc1)C1(Cc2cc(-c3ccccc3)no2)CCCO1` (centres unmarked) [BDE_24757019], the Inhibition percent under setting [3] is on record as 8.09%.

With `COc1cccc([C@@H]2C[C@]3(C)NC(=O)CCCC[C@@H]3N2CC(=O)NCCc2nc3ccccc3[nH]2)c1` [BDH_33615965], the Inhibition percent under setting [2] was 0.09%.

As to `O=C(Cn1cc(C(=O)NC2CCCCC2)ccc1=O)NCC1(c2ccccc2Cl)CC1` [BDB_26414870], under setting [2], the Inhibition percent came to 4.99%.

On to `CNC(=O)c1cnc(C)nc1C1CCCCN1CCS(=O)(=O)c1ccccc1` (centres unmarked) [BDC_23573041], for which the Inhibition percent under setting [3] is recorded as -1.44%.

For the molecule `CC1(C)Oc2ccc(O)cc2[C@H]2O[C@@H](c3ccccc3)CC[C@@H]21` [BDG_34039634], under setting [2], the Inhibition percent is 6.48%.

For the molecule `CC1(C)Oc2ccccc2[C@H]2O[C@H]3CCN(C(=O)c4cccc(OCC(=O)O)c4)C[C@@H]3C[C@@H]21` [BDG_34133285], the Inhibition percent under setting [3] stood at 2.74%.

Take `CN(Cc1cccc(F)c1)Cc1nc(C2CC(=O)N(Cc3ccccc3)C2)cc(N(C)C)n1` (centres unmarked) [BDD_23510085]: under setting [3], the Inhibition percent was -0.99%.

Turning to `Cc1cc(O[C@@H]2C[C@@H](NC(=O)CCCC(=O)O)[C@H](N3CCc4ccccc4C3)[C@H]2O)cc(C(C)C)c1` [BDG_34135452], the Inhibition percent under setting [2] was -0.70%.

`CCCC(=O)N1Cc2ccccc2OC2(CCC(N(C)CC3CCCCC3)CC2)C1` (centres unmarked) [BDD_24804536]: under setting [3], the Inhibition percent is listed as -1.18%.

In the case of `Cc1cc(CCCC(=O)N2CCC(c3nc(N(C)C)ncc3-c3cncnc3)C2)ccc1F` (centres unmarked) [BDF_24540183], the Inhibition percent under setting [2] is on record as 0.11%.

“control peptide with the R306C mutation: 35 amino acid MeCP2 NID peptide (residues 285-319) carrying the R306C mutation, N-terminal biotin (Biotin-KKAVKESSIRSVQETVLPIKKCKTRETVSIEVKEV; UniProt P51608 285-319, looked up, variant R306C) [reference compound]”: the “effect of competitor peptide on MeCP2-TBL1 luminescence signal” value (peptide at 20 µM, n = 2) is reported as “failed to substantially affect”.

For `CC(=O)N[C@@]12CN(CC(=O)Nc3cccc4c3CCCC4)CC[C@@H]1[C@@H](c1ccccc1)N(C)C2` [BDH_32251192], under setting [3], the Inhibition percent is reported as 4.01%.

For the molecule `CNC(=O)c1cccc(C2CN(C(=O)c3ccc(OCc4ccccn4)c(OC)c3)CCN2C)c1` (centres unmarked) [BDH_32373002], the Inhibition percent under setting [3] was found to be 4.71%.

Regarding `CCN(CC)S(=O)(=O)N1CCC2(C/C=C/Cc3ccccc3OCC(=O)NC2)CC1` [BDG_33697034], the Inhibition percent under setting [1] is given as 1.72.

As to `Cc1ccc(Oc2ncccc2C(=O)N2CCC(c3cccc(Cc4ccccc4)n3)CC2)cn1` [BDH_32356013], the Inhibition percent under setting [2] came to 10.27%.

In the case of `CCn1cc(NC(=O)CN2[C@H](Cc3ccccc3)C[C@]3(C)NC(=O)CCC[C@H]23)c(C)n1` [BDH_33623813], the Inhibition percent under setting [3] is listed as -1.65%.

As to `COc1cccc([C@@H]2C[C@]3(C)NC(=O)CCCC[C@@H]3N2CC(=O)NCc2nc3ccccc3n2C)c1` [BDH_33622879], under setting [2], the Inhibition percent came out at 0.95%.

Consider `CNC(=O)c1cnn2c(C3CCCCN3C(=O)c3ccnc(Cc4ccccc4F)c3)ccnc12` (centres unmarked) [BDH_33521663], for which, under setting [2], the Inhibition percent was -0.23%.

Take `COCCNC(=O)c1sc2ncccc2c1C1CCN(Cc2ccc3ncccc3c2)C1` (centres unmarked) [BDF_24020930]: the Inhibition percent under setting [2] is -0.43%.

As to `CC(C)(C)OC(=O)NCCC(=O)N(Cc1ccccc1)C[C@@H]1C[C@@H](n2ccc(=O)[nH]c2=O)[C@@H](O)[C@@H]1O` [BDH_33952010], the Inhibition percent under setting [3] was -1.46%.

For `Cc1nonc1COc1ccccc1C(=O)N1CCCC(Cc2cccc3cccnc23)CC1` (centres unmarked) [BDH_32354219], the Inhibition percent under setting [3] was 4.81%.

As for `Cc1cc(C(=O)N2CCC(Cc3cccc4cccnc34)CC2)nc(C2(C)CCN(C)CC2)n1` [BDH_32363559], under setting [1], the Inhibition percent is -3.40.

In the case of `COc1ccccc1Cc1cc(C(=O)N2CCC(c3nccnc3-c3nc(C)c[nH]3)CC2)ccn1` [BDH_33522161], under setting [2], the Inhibition percent is on record as 6.35%.

`CC(C)(C)OC(=O)N(Cc1ccccc1)C[C@@H]1C[C@H](O)[C@H](O)[C@H]1n1cnc2c(N)ncnc21` [BDH_34018090]: under setting [3], the Inhibition percent is listed as -1.62%.

With `CC(=O)N1CCC(Cc2cc(-c3ccccc3)no2)(C(=O)Nc2ccccc2OC(C)C)C1` (centres unmarked) [BDF_23076638], the Inhibition percent under setting [2] came to 1.76%.

Consider `CN(CCC(=O)N1[C@H](Cc2ccccc2)C[C@]2(C)NC(=O)CCC[C@H]12)Cc1ccccn1` [BDG_24639113], for which, under setting [3], the Inhibition percent is listed as -2.30%.

With `COc1ccccc1Oc1cccc(C2CCN(C(=O)c3ccnc(N4CCOCC4)c3)CC2)n1` [BDH_32364726], under setting [2], the Inhibition percent was 2.70%.

For the molecule `Cc1cc(O)cc(=O)n1CCC(=O)N1CCCCC1C1CCN(C(=O)Cc2ccccc2F)CC1` (centres unmarked) [BDH_33629102], the Inhibition percent under setting [2] was -1.24%.

In the case of `Cc1cc(Oc2ccc(F)cc2)nc(C2CCCCN2C(=O)c2cccc(-c3cncnc3)n2)n1` (centres unmarked) [BDH_32364853], the Inhibition percent under setting [1] is reported as -0.96.

Take `COc1ccc2c(c1)[C@H]1OCC3(CCN(S(C)(=O)=O)CC3)C[C@@H]1C(C)(C)O2` [BDG_33690555]: the Inhibition percent under setting [2] is reported as -0.51%.

Regarding `C[C@@]12C[C@H]3[C@@H](Cc4ccccc4)N[C@@H]1CCC[C@@H]2N3C(=O)c1cccc(Cc2ccccc2F)n1` [BDG_33393042], under setting [1], the Inhibition percent is recorded as -2.99.

As for `CC(=O)N[C@H]1C[C@@H](C(=O)N(C)C)N(C(=O)CCCn2c(C)nc3ccccc32)[C@H]1c1ccccc1` [BDG_33630230], the Inhibition percent under setting [1] is -0.15.

With `CN(C)CCOc1cccc2c1OC(C)(C)[C@H]1C[C@H]3CN(C(=O)CCCC(=O)O)CC[C@@H]3O[C@H]21` [BDG_34129529], under setting [2], the Inhibition percent is listed as 0.07%.

With `COc1ccccc1[C@@H]1CN(Cc2cccc(Oc3ncccn3)c2)C[C@]12CCCCC(=O)N2` [BDH_32359781], under setting [3], the Inhibition percent is -0.97%.

As to `O=C(N1CCC(Cc2cccc3cccnc23)CC1)C1(c2ccccc2)CCOCC1` [BDH_32341683], the Inhibition percent under setting [1] worked out at 6.68.

With `COc1ccc(C2(C(=O)N3CCCCC3CCNC(=O)c3ccccc3)CCCC2)cc1` (centres unmarked) [BDH_32336950], the Inhibition percent under setting [2] turned out to be 6.01%.

In the case of `O=C1C(Cl)=C(N2CCOCC2)C(=O)N1c1ccc(Cl)c(Cl)c1` [RI-1, reference compound], the “Inh (MeCP2-TBL1)” value (ApexBio FDA-approved Drug Library screen, 20 µM) came to 13.6055.

Turning to `O=C(NCC(=O)N1CCCCC1c1ncc(Cc2ccc(Cl)cc2)o1)c1cncc(O)c1` (centres unmarked) [BDE_33513655], under setting [2], the Inhibition percent was -11.18%.

As for `Cc1cc(O)cc(=O)n1CC(=O)N1CCCCC1C1CCN(C(=O)Cc2ccccc2F)CC1` (centres unmarked) [BDH_33628360], under setting [1], the Inhibition percent is given as -0.67.

With `C[C@]12C[C@@H](c3ccccc3)N(CC(=O)Nc3ccc4c(c3)OCCO4)[C@H]1CCCCCN2` [BDH_33617257], the Inhibition percent under setting [1] is given as -2.26.

`COc1cccc2c1OC(C)(C)[C@@H]1C[C@H]3CN(CC(=O)Nc4ccc(C(C)=O)cc4)CC[C@H]3O[C@@H]21` [BDG_51129062]: the Inhibition percent under setting [1] is 4.58.

`Cc1cnn(CC(=O)N2CCC3(CC2)Oc2ccc(Cl)cc2[C@H]2OCCC[C@@H]23)c1` [BDG_33900405]: the Inhibition percent under setting [1] stood at 5.31.

As to `O=C(c1ccccn1)N1CCCC1c1cccc(Cc2ccc(C(F)(F)F)cc2)n1` (centres unmarked) [BDD_27852665], the Inhibition percent under setting [2] is -2.94%.

With `CC(=O)N[C@H]1C[C@@H](C(=O)N(C)C)N(CC(=O)NCc2ccc3[nH]c(C)c(C)c3c2)[C@H]1c1ccccc1` [BDH_33623462], the Inhibition percent under setting [3] is -0.84%.

`CN(Cc1cc(N(C)C)nc(C2CCCCN2)n1)C(=O)c1ccccc1-c1ccccc1` (centres unmarked) [BDE_23459438]: the Inhibition percent under setting [2] is given as -3.75%.

Turning to `O=C(c1ccccc1Cn1ccnc1)N1CCOCC2(C1)CN(c1ccc(Cl)cc1)C(=O)O2` (centres unmarked) [BDH_32374184], under setting [1], the Inhibition percent is on record as 1.12.

Take `COc1ccc([C@@H]2C[C@]3(C)NC(=O)CCC[C@@H]3N2CC2(O)CCN(c3cccc(OC)c3)CC2)cc1` [BDH_33611075]: the Inhibition percent under setting [3] is recorded as 1.71%.

For `C[C@]12C[C@@H](Cc3ccccc3)N(C(=O)CC3CCN(c4ncccn4)CC3)[C@H]1CCCC(=O)N2` [BDH_33627845], under setting [1], the Inhibition percent is recorded as -0.41.

`Cc1cc(Oc2ccc(F)cc2)nc(C2CCCCN2C(=O)c2ccnc(-c3cncnc3)c2)n1` (centres unmarked) [BDH_32364851]: the Inhibition percent under setting [3] is listed as -4.83%.

For the molecule `CC(=O)NC(F)(Cc1ccccc1)C(=O)N1CCC(Cc2cccc3cccnc23)CC1` (centres unmarked) [BDH_32336432], the Inhibition percent under setting [3] came out at 15.90%.

As to `Cc1ccc(CC(=O)N2CCCC(c3ncc(C(=O)NCc4ccccc4)c(C)n3)C2)cc1` (centres unmarked) [BDC_23198767], the Inhibition percent under setting [3] is -0.69%.

Take `COc1ccccc1CNC(=O)c1cn(C)nc1CC1CCN(C(=O)c2cccnc2)CC1` [BDD_26909786]: under setting [2], the Inhibition percent is -3.87%.

In the case of `Cc1ccc(Oc2cccc(C3CN(C(=O)c4cccc(Cn5ccnc5)c4)CCO3)n2)cc1` (centres unmarked) [BDH_32360064], the Inhibition percent under setting [2] is given as 8.15%.
